Reference: the Kinase Knowledgebase extract (Sharma et al. 2016)

These compounds were tested against MAPK14 (human) (UniProt Q16539) (assay: Inhibition of MAPK14 Kinase Activity).
MAPK14 (human), sequence (Q16539 whole entry, looked up): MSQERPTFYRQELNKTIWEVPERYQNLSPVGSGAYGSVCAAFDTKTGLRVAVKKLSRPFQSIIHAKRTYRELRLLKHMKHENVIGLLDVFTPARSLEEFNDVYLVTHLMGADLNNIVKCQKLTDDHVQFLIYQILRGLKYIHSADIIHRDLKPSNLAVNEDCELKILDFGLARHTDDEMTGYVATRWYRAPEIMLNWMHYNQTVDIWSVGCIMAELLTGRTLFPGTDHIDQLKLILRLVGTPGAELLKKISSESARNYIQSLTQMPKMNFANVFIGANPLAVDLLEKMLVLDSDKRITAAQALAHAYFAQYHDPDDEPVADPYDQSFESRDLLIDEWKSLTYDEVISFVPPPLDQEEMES

| Structure (SMILES) | IC50 [µM] |
| --- | --- |
| O=C1CCC(Cc2ccccc2)CN1c1c(Cl)ccnc1Cl (stereo unspecified) | ≤ 10 |
| O=C1NCC(Cc2ccc(F)cc2F)CN1c1c(Cl)ccc(CO)c1Cl (stereo unspecified) | ≤ 10 |
| Cc1ccc(CC2COC(=O)N(c3c(Cl)cccc3Cl)C2)c(C)c1 (stereo unspecified) | ≤ 10 |
| CS(=O)(=O)NCCNc1cc(Cl)c(N2CC(Cc3ccc(F)cc3F)CCC2=O)c(Cl)c1 (stereo unspecified) | ≤ 10 |
| Cc1ccc(CC2CN(C)C(=O)N(c3c(Cl)cccc3Cl)C2)cc1 (stereo unspecified) | ≤ 10 |
| CNc1cc(Cl)c(N2CC(Oc3ccc(F)cc3F)CCC2=O)c(Cl)n1 (stereo unspecified) | ≤ 10 |
| NNC(=O)CNc1cc(Cl)c(N2CC(Cc3ccc(F)cc3F)CCC2=O)c(Cl)c1 (stereo unspecified) | ≤ 10 |
| O=C1CCC(Sc2ccc(Cl)cc2)CN1c1c(Cl)cncc1Cl (stereo unspecified) | ≤ 10 |
| CC(=O)NC1CC(Cl)C(N2CC(Sc3ccc(F)cc3F)CCC2=O)C(Cl)C1 (stereo unspecified) | ≤ 10 |
| O=C1[C@@H](O)C[C@@H](Cc2ccc(F)cc2F)CN1c1c(Cl)cccc1Cl | ≤ 10 |
| O=C(O)CNc1cc(Cl)c(N2CC(Cc3ccc(F)cc3F)CCC2=O)c(Cl)c1 (stereo unspecified) | ≤ 10 |
| O=C1CCC(Oc2ccccc2F)CN1c1c(Cl)ccnc1Cl (stereo unspecified) | ≤ 10 |
| CS(=O)(=O)Nc1ccc(Cl)c(N2CC(Cc3ccc(F)cc3F)CCC2=O)c1 (stereo unspecified) | ≤ 10 |
| CC(=O)Nc1ccc(Cl)c(N2CC(Cc3ccc(F)cc3F)SCC2=O)c1Cl (stereo unspecified) | ≤ 10 |
| Cc1cc(C#CCCN2CCOCC2)cc(C)c1N1CC(Cc2ccc(F)cc2F)CCC1=O (stereo unspecified) | ≤ 10 |
| O=C(Cc1ccccc1)Nc1sc(Cl)c(N2CC(Sc3ccc(F)cc3F)CCC2=O)c1Cl (stereo unspecified) | ≤ 10 |
| CC(C)(C)OC(=O)Nc1cc(Cl)c(N2CC(Cc3ccc(F)cc3F)CCC2=O)c(Cl)c1 (stereo unspecified) | ≤ 10 |
| O=C1CCC(Oc2ccc(F)cc2F)CN1C1C(Cl)CCC(O)C1Cl (stereo unspecified) | ≤ 10 |
| O=C1CCC(Sc2ccc(Cl)cc2)CN1c1c(Cl)ccnc1Cl (stereo unspecified) | ≤ 10 |

| Structure (SMILES) | IC50 [µM] |
| --- | --- |
| O=C1NCC(Cc2ccc(F)cc2)CN1c1c(Cl)cccc1Cl (stereo unspecified) | ≤ 10 |
| Cc1cc(C)cc(CC2COC(=O)N(c3c(Cl)cccc3Cl)C2)c1 (stereo unspecified) | ≤ 10 |
| O=C(Cc1ccccc1)Nc1ccc(Cl)c(N2CC(Oc3ccc(F)cc3F)CCC2=O)c1Cl (stereo unspecified) | ≤ 10 |
| O=C1CCC(Cc2ccc(Cl)cc2)CN1c1c(Cl)csc1Cl (stereo unspecified) | ≤ 10 |
| O=C1CCC(Sc2ccccc2)CN1c1c(Cl)ccnc1Cl (stereo unspecified) | ≤ 10 |
| O=C1CCC(Oc2ccc(F)cc2F)CN1c1c(Cl)cncc1Cl (stereo unspecified) | ≤ 10 |
| O=C1COC(Cc2ccc3ccccc3c2)CN1c1c(Cl)cccc1Cl (stereo unspecified) | ≤ 10 |
| Cc1ccccc1CC1CCC(=O)N(c2c(Cl)cccc2Cl)C1 (stereo unspecified) | ≤ 10 |
| CC(=O)Nc1cc(Cl)c(N2CC(Cc3ccc(F)cc3F)CCC2=O)c(Cl)c1 (stereo unspecified) | ≤ 10 |
| Cc1ccc(CC2CSC(=O)N(c3c(Cl)cccc3Cl)C2)cc1 (stereo unspecified) | ≤ 10 |
| CNc1ccc(Cl)c(N2CC(Sc3ccc(F)cc3F)CCC2=O)c1Cl (stereo unspecified) | ≤ 10 |
| COC(=O)/C=C/c1cc(Cl)c(N2CC(Cc3ccc(F)cc3F)CCC2=O)c(Cl)c1 (stereo unspecified) | ≤ 10 |
| O=C1CCC(Cc2ccc(OC(F)(F)F)cc2)CN1c1c(Cl)cccc1Cl (stereo unspecified) | ≤ 10 |
| Cc1ccccc1OC1CCC(=O)N(c2c(Cl)cncc2Cl)C1 (stereo unspecified) | ≤ 10 |
| Cc1ccc(CC2CCC(=O)N(C3C(Cl)CCCC3Cl)C2)cc1 (stereo unspecified) | ≤ 10 |
| O=C1CSC(Cc2ccc3ccccc3c2)CN1c1c(Cl)cccc1Cl (stereo unspecified) | ≤ 10 |
| CC(=O)Nc1ncc(Cl)c(N2CC(Sc3ccc(F)cc3F)CCC2=O)c1Cl (stereo unspecified) | ≤ 10 |
| CC(=O)Nc1ccc(Cl)c(N2CC(Sc3ccc(F)cc3F)CCC2=O)c1Cl (stereo unspecified) | ≤ 10 |
| O=C1CCC(Oc2cc(Cl)cc(Cl)c2)CN1c1c(Cl)csc1Cl (stereo unspecified) | ≤ 10 |

| Structure (SMILES) | IC50 [µM] |
| --- | --- |
| O=C1CCC(Oc2ccc(Cl)cc2)CN1c1c(Cl)csc1Cl (stereo unspecified) | ≤ 10 |
| O=C1CSC(Cc2ccc(Cl)cc2)CN1c1c(Cl)cccc1Cl (stereo unspecified) | ≤ 10 |
| NC(=O)NCCNc1cc(Cl)c(N2CC(Cc3ccc(F)cc3F)CCC2=O)c(Cl)c1 (stereo unspecified) | ≤ 10 |
| O=C1CCC(Sc2cccc3ccccc23)CN1c1c(Cl)cccc1Cl (stereo unspecified) | ≤ 10 |
| CNc1cc(Cl)c(N2CC(Cc3ccc(F)cc3F)COC2=O)c(Cl)c1 (stereo unspecified) | ≤ 10 |
| Cc1cccc(C)c1N1CC(/C=C/Cc2ccccc2)(CO)CCC1=O (stereo unspecified) | ≤ 10 |
| O=C(NCc1ccccc1CC1CCC(=O)N(c2c(Cl)cccc2Cl)C1)Nc1cccc(C(F)(F)F)c1 (stereo unspecified) | ≤ 10 |
| Cc1cc2c(cc1NC(=O)NCc1ccccc1CC1CCC(=O)N(c3c(Cl)cccc3Cl)C1)C(C)(C)CCC2 (stereo unspecified) | ≤ 10 |
| O=C1CCC(Sc2ccccc2)CN1c1c(Cl)cncc1Cl (stereo unspecified) | ≤ 10 |
| CN1CC(Cc2ccc(F)cc2F)CN(c2c(Cl)cc(NC(=O)Cc3ccccc3)cc2Cl)C1=O (stereo unspecified) | ≤ 10 |
| COc1ccccc1CC1CCC(=O)N(c2c(Cl)csc2Cl)C1 (stereo unspecified) | ≤ 10 |
| O=C1CCC(Cc2cccc3ccccc23)CN1c1c(Cl)cncc1Cl (stereo unspecified) | ≤ 10 |
| O=C(O)CNc1ccc(Cl)c(N2CC(Cc3ccc(F)cc3F)CCC2=O)c1 (stereo unspecified) | ≤ 10 |
| O=C1CCC(Oc2ccc(F)cc2F)CN1c1c(Cl)cc(O)cc1Cl (stereo unspecified) | ≤ 10 |
| COc1ccccc1CC1CCC(=O)N(c2c(Cl)cccc2Cl)C1 (stereo unspecified) | ≤ 10 |
| NC1CC(Cl)C(N2CC(Oc3ccc(F)cc3F)CCC2=O)C(Cl)C1 (stereo unspecified) | ≤ 10 |
| COc1ccccc1CC1CN(c2c(Cl)cccc2Cl)C(=O)CO1 (stereo unspecified) | ≤ 10 |
| CC(=O)Nc1cc(Cl)c(N2CC(Cc3ccc(F)cc3F)COC2=O)c(Cl)c1 (stereo unspecified) | ≤ 10 |
